The nature of data set [1]: Dissolution screening of DPX and its physical mixtures with organic acids and cyclodextrins. The class given is physicochemical. Particulars: phosphate buffer pH 6.8, 37±0.5° C., in absence of excipients. On the procedure: Various organic acids (CA, MA, and TA) and cyclodextrins β3-CD and HP-β-CD) were assessed as acidifiers and hydrophilic solubilizers to enhance the dissolution of DPX. Equivalent amounts of DPX and each of the studied excipients were thoroughly mixed for 5 min. The dissolution behavior of specified quantity of each mixture equivalent to 30 mg DPX was done in 900 mL phosphate buffer (pH 6.8) using USP Dissolution Tester, apparatus II (DT 720, Erweka, Germany) operating at 50 rpm at 37±0.5° C.. Aliquot samples were withdrawn after 2 and 15 minutes and replaced with equal volume of fresh buffer. Samples were filtered through a 0.22 μm Millipore filter, and the concentration of DPX was quantified spectrophotometrically at 292 nm (UV-2600 PC; Shimadzu, Kyoto, Japan). The dissolution study was done in triplicate.

For data set [2] the following is noted: reported [26]; cited from earlier work.

Structures can show the parent of a compound that is named as a salt.

In the case of `CN(C)[C@@H](CCOc1cccc2ccccc12)c1ccccc1` [DPX, Dapoxetine hydrochloride], in data set [1], the “percent dissolved after 2 minutes” value worked out at 2.13±0.09% and the “percent dissolved after 15 minutes” value is listed as 2.89±0.06%. In addition, the “solubility in phosphate buffer pH 6.8” value in data set [2] was 0.26 μg·mL^−1.
